# Source: US20230263803A1, “METHODS OF PREVENTING OR TREATING COVID-19 AND RELATED VIRAL DISEASES OR DISORDERS” (KINARUS AG, priority 2020, published 2023)
# Tests used:
# [1] = system: SARS-CoV-2B.1.1.7 variant; format: cell-based; details: at the highest concentrations; Vero B4 cells, 72 hrs, qRT-PCR
# [2] = system: SARS-CoV-2 B1.351 variant; format: cell-based; details: at the highest concentrations; Vero B4 cells, 72 hrs, qRT-PCR
smiles,measurement,setting,value
"Cn1c(=O)c(Oc2ccc(F)cc2F)cc2cnc(NC(CCO)CCO)nc21 [Pamapimod, 6-(2,4-Difluorophenoxy)-2-[3-hydroxy-1-(2-hydroxyethyl)-propylamino]-8-methyl-8H-pyrido[2,3-d]pyrimidin-7-one]","inhibition of viral shedding, B.1.1.7 variant",[1],> 90%
same,"inhibition of viral shedding, B1.351 variant",[2],> 90%
